Data published in publication PMC7582516, “A Novel Series of [1,2,4]Triazolo[4,3-a]Pyridine Sulfonamides as Potential Antimalarial Agents: In Silico Studies, Synthesis and In Vitro Evaluation” (Molecules, 2020).
Values after ≈ are worked out from the molar mass of the structure shown.

Experiments:
[1] = Solubility in DMSO/Water (practical data); type: physicochemical
MRC-5 SV2 cells = assay: Cytotoxicity assay (resazurin); type: cell-based; conditions: Homo sapiens, MRC-5 fibroblast cytotoxicity, 72 h
Procedure: Stock solutions were prepared in 100% DMSO at 20 mg/mL just prior to screening. […] Reference drugs were either obtained from the fine chemical supplier Sigma or from WHO-TDR. The integrated panel of microbial screens and standard screening methodologies was adopted as previously described. All assays were performed in triplicate at the Laboratory of Microbiology, Parasitology and Hygiene at the University of Antwerp, Belgium. […] The selectivity antiprotozoal potential was assessed by simultaneous evaluation of cytotoxicity on a fibroblast (MRC-5) cell line. […] Cell viability was assessed fluorimetrically after 4 h of addition of resazurin. Fluorescence was measured (excitation 550 nm, emission 590 nm) and the results were expressed as % reduction in cell viability compared to control.

Solubility [1] | melting point | SMILES | IC50 (MRC-5 SV2 cells) [µg/mL]
moderately soluble |  | O=c1n(Cc2cccc(Cl)c2)nc2c(S(=O)(=O)N3CCCCC3)cccn12 [Compound 13a, 2-(3-Chlorobenzyl)-8-(piperidin-1-ylsulfonyl)-[1,2,4]triazolo[4,3-a]pyridin-3(2H)-one] | > 64
 | 190 to 191 °C | O=c1n(Cc2ccc(F)cc2Cl)nc2ccc(S(=O)(=O)N3CCSCC3)cn12 [Compound 13j, 2-(2-Chloro-4-fluorobenzyl)-6-(thiomorpholinosulfonyl)-[1,2,4]triazolo[4,3-a]pyridin-3(2H)-one] | > 64
 | 160 to 161 °C | O=c1n(Cc2ccc3c(c2)OCO3)nc2c(S(=O)(=O)N3CCCCC3)cccn12 [Compound 13b, 2-(Benzo[d][1,3]dioxol-5-ylmethyl)-8-(piperidin-1-ylsulfonyl)-[1,2,4]triazolo[4,3-a]pyridin-3(2H)-one] | > 64
 | 104 to 105 °C | Cc1cccc(CN(c2ccc(F)cc2)S(=O)(=O)c2ccc3nnc(C)n3c2)c1 [Compound 8f, N-(4-fluorophenyl)-3-methyl-N-(3-methylbenzyl)-[1,2,4]triazolo[4,3-a]pyridine-6-sulfonamide] | > 64
 | 169 to 170 °C | COc1ccc(CSc2nnc3c(S(=O)(=O)N4CCCCC4)cccn23)cc1 [Compound 15a, 3-(4-Methoxybenzylthio)-8-(piperidin-1-ylsulfonyl)-[1,2,4]triazolo[4,3-a]pyridine] | > 64
 | 152 to 154 °C | COC(=O)c1ccc(CN(c2cccc(C)c2)S(=O)(=O)c2ccc3nnc(C)n3c2)o1 [Compound 8d, Methyl 5-{[3-methyl-N-(3-methylphenyl)-[1,2,4]triazolo[4,3-a]pyridine-6-sulfonamido]methyl}furan-2-carboxylate] | > 64
 | 160 to 162 °C | O=S(=O)(c1cccn2c(SCc3cccc(Br)c3)nnc12)N1CCCCC1 [Compound 15b, 3-(3-Bromobenzylthio)-8-(piperidin-1-ylsulfonyl)-[1,2,4]triazolo[4,3-a]pyridine] | > 64
 | 113 to 115 °C | O=S(=O)(c1cccn2c(SCc3ccc(F)cc3)nnc12)N1CCCc2ccccc21 [Compound 15f, 1-(3-(4-Fluorobenzylthio)-[1,2,4]triazolo[4,3-a]pyridin-8-ylsulfonyl)-1,2,3,4-tetrahydroquinoline] | > 64
 | 150 to 151 °C | CC1CCN(S(=O)(=O)c2ccc3nn(Cc4ccccc4F)c(=O)n3c2)CC1 [Compound 13h, 2-(2-Fluorobenzyl)-6-(4-methylpiperidin-1-ylsulfonyl)-[1,2,4]triazolo[4,3-a]pyridin-3(2H)-one] | > 64
 | 143 to 145 °C | O=S(=O)(c1cccn2c(SCc3cccc(Cl)c3)nnc12)N1CCCC1 [Compound 15d, 3-(3-Chlorobenzylthio)-8-(pyrrolidin-1-ylsulfonyl)-[1,2,4]triazolo[4,3-a]pyridine] | > 64
 | 155 to 156 °C | Cc1ccc(CSc2nnc3c(S(=O)(=O)N4CCCCC4)cccn23)cc1 [Compound 15c, 3-(4-Methylbenzylthio)-8-(piperidin-1-ylsulfonyl)-[1,2,4]triazolo[4,3-a]pyridine] | > 64
moderately soluble |  | CCc1nnc2ccc(S(=O)(=O)N(Cc3cccc(F)c3)c3ccc(OC)cc3)cn12 [Compound 8e, 3-Ethyl-N-(3-fluorobenzyl)-N-(4-methoxyphenyl)-[1,2,4]triazolo[4,3-a]pyridine-6-sulfonamide] | 18.2 (≈ 41.3 µM)
 | 160 to 162 °C | O=S(=O)(c1cccn2cnnc12)N(Cc1cccc(Cl)c1)c1cc(F)cc(F)c1 [Compound 8a, N-(3-chlorobenzyl)-N-(3,5-difluorophenyl)-[1,2,4]triazolo[4,3-a]pyridine-8-sulfonamide] | > 64
 |  | O=c1n(Cc2ccccc2Cl)nc2c(S(=O)(=O)N3CCOCC3)cccn12 [Compound 13d, 2-(2-Chlorobenzyl)-8-(morpholinosulfonyl)-[1,2,4]triazolo[4,3-a]pyridin-3(2H)-one] | > 64
 | 258 to 260 °C (dec.) | O=C1CCCN1c1ccc(Cn2nc3c(S(=O)(=O)N4CCOCC4)cccn3c2=O)cc1 [Compound 13e, 8-(Morpholinosulfonyl)-2-[4-(2-oxopyrrolidin-1-yl)benzyl]-[1,2,4]triazolo[4,3-a]pyridin-3(2H)-one] | > 64
 |  | Cc1nnc2ccc(S(=O)(=O)N(Cc3ccccc3F)c3cccc(Cl)c3)cn12 [Compound 8h, N-(3-chlorophenyl)-N-(2-fluorobenzyl)-3-methyl-[1,2,4]triazolo[4,3-a]pyridine-6-sulfonamide] | > 64
 | 198 to 199 °C | Cc1nnc2ccc(S(=O)(=O)N(Cc3ccc(F)cc3)c3ccc(Cl)cc3)cn12 [Compound 8i, N-(4-chlorophenyl)-N-(4-fluorobenzyl)-3-methyl-[1,2,4]triazolo[4,3-a]pyridine-6-sulfonamide] | > 64
 | 164 to 166 °C | O=S(=O)(c1cccn2c(SCc3ccccc3Cl)nnc12)N1CCCC1 [Compound 15e, 3-(2-Chlorobenzylthio)-8-(pyrrolidin-1-ylsulfonyl)-[1,2,4]triazolo[4,3-a]pyridine] | > 64
 | 145 to 146 °C | Cc1cccc(Cn2nc3ccc(S(=O)(=O)N4CCC(C)CC4)cn3c2=O)c1 [Compound 13g, 2-(3-Methylbenzyl)-6-(4-methylpiperidin-1-ylsulfonyl)-[1,2,4]triazolo[4,3-a]pyridin-3(2H)-one] | > 64
 |  | Cc1cc(C)cc(N(Cc2cc(C)ccc2C)S(=O)(=O)c2cccn3c(C)nnc23)c1 [Compound 8b, N-(2,5-dimethylbenzyl)-N-(3,5-dimethylphenyl)-3-methyl-[1,2,4]triazolo[4,3-a]pyridine-8-sulfonamide] | 48.5 (≈ 112 µM)
 | 221 to 222 °C | O=c1n(Cc2cc(F)cc(F)c2)nc2c(S(=O)(=O)N3CCCCC3)cccn12 [Compound 13c, 2-(3,5-Difluorobenzyl)-8-(piperidin-1-ylsulfonyl)-[1,2,4]triazolo[4,3-a]pyridin-3(2H)-one] | > 64
 | 154 to 155 °C | O=c1n(Cc2cccc(F)c2)nc2ccc(S(=O)(=O)N3CCSCC3)cn12 [Compound 13i, 2-(3-Fluorobenzyl)-6-(thiomorpholinosulfonyl)-[1,2,4]triazolo[4,3-a]pyridin-3(2H)-one] | > 64
 | 173 to 174 °C | O=c1n(Cc2ccc(Cl)cc2)nc2ccc(S(=O)(=O)N3CCCCC3)cn12 [Compound 13f, 2-(4-Chlorobenzyl)-6-(piperidin-1-ylsulfonyl)-[1,2,4]triazolo[4,3-a]pyridin-3(2H)-one] | > 64
 |  | COc1ccc(CN(c2cc(C)cc(C)c2)S(=O)(=O)c2cccn3c(C)nnc23)cc1 [Compound 8c, N-(3,5-dimethylphenyl)-N-(4-methoxybenzyl)-3-methyl-[1,2,4]triazolo[4,3-a]pyridine-8-sulfonamide] | > 64
 | 107 to 109 °C | Cc1nnc2ccc(S(=O)(=O)N(Cc3cccc(Cl)c3)c3ccc(F)cc3)cn12 [Compound 8g, N-(3-chlorobenzyl)-N-(4-fluorophenyl)-3-methyl-[1,2,4]triazolo[4,3-a]pyridine-6-sulfonamide] | > 64
